Source: patent US20240415152A1, “METHODS FOR IMPROVING HEALTH OF FISH, USE OF ZINC OXIDE PARTICLES FOR THE PREPARATION OF FISH FEED, METHODS FOR PREPARING FISH FEED FOR FISH, AND FISH FEED THEREOF” (City University of Hong Kong, priority 2023, published 2024)

Key:
Type in all cases: in vivo, Trachinotus ovatus
Conditions in all cases: dietary 60 mg/kg, 5 weeks
[1] = test system: intestinal tissue of fish; assay: In situ spatial quantitative analysis of intestinal tissue (HE sections, tissue cytometry)
Description: After dietary exposure, all fish were starved for 24 h, and the ice-water was used to anesthetize fish from different groups. To avoid sample contamination during sampling, we first thoroughly disinfected the sampling table with 75% alcohol, and then spread a disposable tablecloth and disinfected it twice. All metal dissection tools were high-temperature sterilization. Each treatment group shared one set of dissection tools. After each set of samples, the disposable tablecloth was replaced and thoroughly sterilized for the following group sampling. The tubes (sterile and enzyme-free) for the temporary storage of samples were purchased from Corning. Inc. The alcohol lamp was kept on throughout the sampling process. Fish's weights were measured immediately. All individual fish per net were swabbed using 75% alcohol. After that, we used a 1 mL disposable syringe to collect the blood from the caudal vertebra of the fish. The blood was quickly drawn into the pre-cooled 1.5 mL-centrifuge tubes (RNA-free tube). Then, all the blood samples were put in the 4° C. refrigerator for 24 h, and then centrifuged (4° C., 3000 r/min, 10 min) to obtain the serum samples for biochemical analysis. The blood-drawn fish were quickly dissected to obtain the gill, intestine content, intestine, liver, and muscle. Each replicated sample contained 6 fish, resulting in 18 fish per treatment group (with 3 replicates). All these samples were immediately frozen in liquid nitrogen and transferred to −80° C. refrigerator using dry ice, except the intestine for histomorphological study. For histomorphological analysis of the intestine, the tissues (3 fish per treatment group) were firstly dissected in the medical ice sheet. After 0.9% NaCl solution quick washing, the intestine tissues were fixed in the 4% paraformaldehyde (BL539A, Biosharp) for 48 h. The fixed intestinal samples were carefully transferred to 75% alcohol for long-term preservation.
The fixed intestine tissues were removed from the fixed liquid and then carefully trimmed with the ventilation cupboard. The trimmed tissues with different labels were placed in the dehydration box in the dehydrator (Donatello, DIAPATH) to dehydrate with gradient alcohol. The process was as follows: 75% alcohol 4 h, 85% alcohol 2 h, 90% alcohol 2 h, 95% alcohol 1 h, anhydrous ethanol I 30 min, anhydrous ethanol II 30 min, alcohol benzene 5˜10 min, xylene II 5˜10 min, 65° C. melting paraffin I1 h, 65° C. melting paraffin II 1 h, 65° C. melting paraffin Ill 1 h. The tissues were removed from the dehydration box and placed in the embedding frame of the embedding machine (JB-P5, Wuhan Junjie Electronics Co., Ltd), subsequently the frozen platform at −20° C. was used to cool the dewatering box. The solidified wax block was removed from the embedded frame and placed on the pathology slicer (RM2016, Shanghai Leica Instrument Co., Ltd) to obtain 4 μm slice thickness. The tissues were then flattened when the slice floated on the 40° C. warm water of the spreading machine. […]
In situ spatial quantitative identification of HE sections were imaged and analyzed by tissue cytometry. Briefly, the images were obtained on the TissueFAXS quantitative imaging system (TissueGnostics, Vienna, Austria). […] The scanned files were imported into the strataquest professional organization single-cell quantitative analysis system (v.7.0.1.176) for image processing and analysis. […]

[2] = test system: intestinal microorganism of golden pompano; assay: Bacterial 16S ribosomal RNA gene sequencing of intestine content (ASV-based)
Excerpt: DNA samples from the intestine content (only mucosa without the muscularis) were isolated using the MP Fast® SPIN DNA Kit. Each replicated sample contained 6 fish, resulting in 18 fish per treatment group. DNA extracts were amplified using primers (338F_806R) for the V3-V4 region of the 16S rRNA gene. Procedures for the DNA extracts and PCR amplification and then illuminma Miseq sequencing are described as follows.
DNA extraction and PCR amplification: The quality of DNA extraction was determined using 1% agarose gel electrophoresis, and DNA concentration and purity were determined using NanoDrop2000. […] The 16S rRNA gene V3-V4 variable region was amplified by PCR using 338F (5′-[…]-3′) and 806R (5′-[…]-3′). The amplification procedure was as follows: 95° C. pre-denaturation for 3 min, 27 cycles (95° C. denaturation for 30 s, 55° C. annealing for 30 s, 72° C. extension for 30 s), followed by 72° C. stable extension for 10 min and finally storage at 4° C. (PCR instrument: ABI GeneAmp® Model 9700). FastPfu buffer 4 μL, 2.5 mM dNTPs 2 μL, upstream primer (5 uM) 0.8 μL, downstream primer (5 uM) 0.8 μL, TransStart FastPfu DNA polymerase 0.4 μL, template DNA 10 ng, ddH2O make up to 20 μL. 3 replicates for each sample.
Illumina Miseq sequencing: PCR products from the same sample were mixed and recovered using a 2% agarose gel. Fluorometer (Promega, USA) was used to quantify the recovered products. Library construction was performed using NEXTflex™ Rapid DNA-Seq Kit (Bioo Scientific, USA): (1) splice linkage; (2) removal of splice self-linked fragments using magnetic bead screening; (3) enrichment of library template using PCR amplification; (4) recovery of PCR products by magnetic beads to obtain the final library. Sequencing was performed using Illumina's Miseq PE300 platform (Shanghai Meiji Biomedical Technology Co., Ltd.).
For Illumina Miseq PE300, products were pooled by sequencing equimolar and paired-end sequences (2×300) to obtain the raw data. Please see description for raw data stitching and optimization. After the PE reads obtained by MiSeq sequencing were split, the double-ended reads were first quality controlled and filtered according to the sequencing quality. Meanwhile, according to the overlapping relationship between double-ended reads, the optimized data after quality control splicing were obtained. […]
Raw data stitching and optimization: Fastp (version 0.20.0) software was used for quality control of the original sequencing sequence, and flash was used (version 1.2.7) software for splicing: (1) filter the bases with a mass value of less than 20 at the tail of reads and set a 50 bp window. […]

golden pompano = assay: Growth performance (final weight, weight gain rate) after 5-week dietary exposure
Description: Fish exposure experiments were conducted in strict accordance with the Chinese Guidelines for Ethical Review of Laboratory Animal Welfare (GBIT 35892-2018). Three groups of golden pompanos (initial body wet weight of about 6 g) were randomly chosen and split after 14 days of acclimatization. There were three replicated net cages in Mirs Bay (Nanao, Shenzhen, China) for each group, with 30 fish in each duplicate. Each day, the experimental meals were given two-time (8:00 h, and 16:00 h) to golden pompano until satiation during the 5-week exposure experiment. The water was 29-32° C., dissolved oxygen 6.8-7.2 mg/L, and salinity 28-30‰ during dietary exposure.
After dietary exposure, all fish were starved for 24 h, and the ice-water was used to anesthetize fish from different groups. To avoid sample contamination during sampling, we first thoroughly disinfected the sampling table with 75% alcohol, and then spread a disposable tablecloth and disinfected it twice. All metal dissection tools were high-temperature sterilization. Each treatment group shared one set of dissection tools. After each set of samples, the disposable tablecloth was replaced and thoroughly sterilized for the following group sampling. The tubes (sterile and enzyme-free) for the temporary storage of samples were purchased from Corning. […] Fish's weights were measured immediately. […]

## O=S(=O)([O-])[O-].[Zn+2] [ZnSO4, zinc sulphate]
[1]
  intestinal villus area: reduced
  villus height distribution (changes in the fish villi intestine): 0.05-0.33 μm
[1]; compared with the other groups
  area of basal layer of fish intestine: reduced
  total number of goblet cells: reduced
  villus/crypt ratio (intestinal/crypt ratio): reduced
[2]
  genus-level differential microorganisms in fish intestine: significantly enriched Photobacterium and Mycoplasma
  main intestinal microorganisms at phylum level: Proteobacteria, Firmicutes and Cyanobacteria
  unique reads of microorganisms at ASV level (Venn diagram): 808
  unique reads of microorganisms at genus level (Venn diagram): 137
Golden pompano
  WGR (weight gain rate): 268.78%
Golden pompano; initial body wet weight about 6 g
  final weight: 22.30 g
